Values of other authors, collected in patent US4181708A, “Rumen-stable pellets” (Eastman Kodak Company, priority 1978, dated 1980).
Like-named read-outs stand apart in the source and are kept apart here.

Conditions: for Solubility: water

| SMILES | pH of saturated solution | Solubility (at 25° C.) [g./100 g. water] | Solubility [g./100 g. water] |
| --- | --- | --- | --- |
| N[C@@H](Cc1ccc(O)cc1)C(=O)O [L(-) - Tyrosine] | 7.3 |  |  |
| CSCCC(N)C(=O)O (racemic) [DL - Methionine] | 5.7 |  |  |
| N=C(N)NCCC[C@H](N)C(=O)O [L - Arginine] | 11.8 |  |  |
| CC(N)C(=O)O (racemic) [DL - Alanine] | 6.2 |  |  |
| NC(Cc1ccccc1)C(=O)O (racemic) [DL - Phenylalanine] | 5.6 | 3.0 |  |
| N[C@@H](CS)C(=O)O [L(-) - Cysteine] | 3.7 |  | 0.01 |
| CC(C)C[C@H](N)C(=O)O [L(-) - Lencine] |  | 2.0 |  |
| NC(=O)C[C@H](N)C(=O)O [L - Asparagine] | 4.7 |  | 3.1 |
